# According to patent US9464084B2, “P2X7 modulators” (Janssen Pharmaceutica NV, priority 2013, dated 2016):
# Tests used:
# [1] = molecular target: T1, P2X7 (Homo sapiens (Human), UniProt Q99572); experiment: P2X7 antagonism in human PBMCs (LPS + Bz-ATP induced IL-1β release, ELISA); type: cell-based; conditions: LPS 30 ng/ml, Bz-ATP 0.5 mM; for PBMC 10 μM (% control): compound 10 μM; for PBMC 1 μM (% control): compound 1 μM;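 on all read-outs here: PBMCs from donor human blood, with a further 1.5 h incubation of the cells in the assay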
# [2] = molecular target: T1, P2X7; experiment: Radioligand binding, tritiated A-804598, human P2X7-1321N1 cell membranes; conditions: 1 hour at 4° C.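 Further: ki obtained from the binding IC50 after correction for tracer concentration and tracer affinity.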
# Experimental: On the day of the experiment, cell membrane preparations were made according to standard published methods. […] The assay was terminated by filtration (GF/B filters pre-soaked with 0.3% PEI) and washed with washing buffer (Tris-HCl 50 mM). The IC50 generated in the binding assay was corrected for tracer concentration and affinity of the tracer to derive at the affinity (Ki) of the test compounds.
# [3] = molecular target: T1, P2X7; experiment: Ca2+ flux (FLIPR) in 1321N1 cells expressing recombinant human P2X7 channel; type: cell-based; conditions: 250 μM BzATP;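 further: Calcium-4 dye-loaded cells exposed to compound for 30 min before agonist addition, fluorescence change read 180 s after agonist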
# Experimental: (§1) Cells were seeded at a density of 25000 cells/well (96-well clear bottom black walled plates) in 100 μl volume/well. On the day of the experiment, cell plates were washed with assay buffer, containing (in mM): 130 NaCl, 2 KCl, 1 CaCl2, 1 MgCl2, 10 HEPES, 5 glucose; pH 7.40 and 300 mOs. After the wash, cells were loaded with the Calcium-4 dye (Molecular Device) and incubated in the dark for 60 minutes. Test compounds were prepared at 250× the test concentration in neat DMSO. Intermediate 96-well compound plates were prepared by transferring 1.2 μL of the compound into 300 μL of assay buffer. A further 3× dilution occurred when transferring 50 μL/well of the compound plate to 100 μL/well in the cell plate. Cells were incubated with test compounds and dye for 30 minutes. […] The fluorescence change was measured 180 seconds after adding the agonist.
# [4] = molecular target: rat P2X7 (Rattus norvegicus (Rat), UniProt Q64663); experiment: Ca2+ flux (FLIPR) in 1321N1 cells expressing recombinant rat P2X7 channel; type: cell-based; conditions: 250 μM BzATP;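 further: Calcium-4 dye fluorescence change read 180 s after agonist addition, following 30 min cell preincubation with test compound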
# rat P2X7, sequence (Q64663 whole entry): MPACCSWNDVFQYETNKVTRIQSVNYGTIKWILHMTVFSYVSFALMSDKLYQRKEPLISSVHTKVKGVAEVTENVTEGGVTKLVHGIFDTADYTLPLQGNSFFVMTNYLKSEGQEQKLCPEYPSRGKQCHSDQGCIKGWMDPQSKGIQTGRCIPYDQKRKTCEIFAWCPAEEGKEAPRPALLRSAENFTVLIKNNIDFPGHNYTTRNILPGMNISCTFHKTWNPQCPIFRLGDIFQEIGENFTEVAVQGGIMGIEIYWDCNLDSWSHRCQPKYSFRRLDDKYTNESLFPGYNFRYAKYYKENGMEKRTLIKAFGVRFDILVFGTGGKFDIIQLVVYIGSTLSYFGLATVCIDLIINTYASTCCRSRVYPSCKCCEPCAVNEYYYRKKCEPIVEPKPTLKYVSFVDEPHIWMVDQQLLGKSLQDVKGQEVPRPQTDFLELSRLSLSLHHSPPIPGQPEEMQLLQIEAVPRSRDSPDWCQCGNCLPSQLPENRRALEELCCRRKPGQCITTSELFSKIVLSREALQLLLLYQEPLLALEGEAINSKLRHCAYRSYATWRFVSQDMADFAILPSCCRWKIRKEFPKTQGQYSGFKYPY
# Experimental: as §1
# T1 sequence (Q99572 whole entry): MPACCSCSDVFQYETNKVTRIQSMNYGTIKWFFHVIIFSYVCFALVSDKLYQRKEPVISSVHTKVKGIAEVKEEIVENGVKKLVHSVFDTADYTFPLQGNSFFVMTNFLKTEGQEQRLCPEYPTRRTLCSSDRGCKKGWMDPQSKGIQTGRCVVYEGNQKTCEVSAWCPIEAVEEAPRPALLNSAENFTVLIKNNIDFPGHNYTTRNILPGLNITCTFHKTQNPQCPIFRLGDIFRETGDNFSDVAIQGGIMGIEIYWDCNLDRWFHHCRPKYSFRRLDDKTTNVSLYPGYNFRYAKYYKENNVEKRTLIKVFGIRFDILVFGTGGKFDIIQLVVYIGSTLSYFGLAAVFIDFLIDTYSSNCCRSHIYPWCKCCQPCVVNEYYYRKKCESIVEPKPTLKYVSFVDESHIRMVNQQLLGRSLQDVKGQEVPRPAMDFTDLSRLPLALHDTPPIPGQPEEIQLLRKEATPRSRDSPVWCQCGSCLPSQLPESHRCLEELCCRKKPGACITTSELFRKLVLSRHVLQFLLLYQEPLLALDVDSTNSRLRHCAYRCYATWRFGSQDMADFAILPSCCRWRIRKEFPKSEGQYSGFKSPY
PBMC 10 μM (% control) [1] [% control],Ki [2] [nM],IC50 [3] [nM],IC50 [4] [nM],PBMC 1 μM (% control) [1] [% control],SMILES
8.6,501,931,2370,,"CC1c2ncn(-c3ccc(F)cc3)c2CCN1C(=O)c1cccc(C(F)(F)F)c1F (stereo not shown) [Example 20, (2-Fluoro-3-(trifluoromethyl)phenyl)(1-(4-fluorophenyl)-4-methyl-6,7-dihydro-1H-imidazo[4,5-c]pyridin-5(4H)-yl)methanone]"
,91.2,35,34.2,2.9,"CCOC(=O)C1c2ncn(-c3ccccn3)c2CCN1C(=O)c1cccc(C(F)(F)F)c1Cl (stereo not shown) [Example 24, Ethyl 5-(2-chloro-3-(trifluoromethyl)benzoyl)-1-(pyridin-2-yl)-4,5,6,7-tetrahydro-1H-imidazo[4,5-c]pyridine-4-carboxylate]"
,74.1,111,3270,9.7,"CCOC(=O)C1c2ncn(-c3ccccn3)c2CCN1C(=O)c1cccc(Cl)c1Cl (stereo not shown) [Example 25, Ethyl 5-(2,3-dichlorobenzoyl)-1-(pyridin-2-yl)-4,5,6,7-tetrahydro-1H-imidazo[4,5-c]pyridine-4-carboxylate]"
,85.1,9.8,71,14.0,"CCOC(=O)C1c2ncn(-c3ccccc3)c2CCN1C(=O)c1cccc(C(F)(F)F)c1Cl (stereo not shown) [Example 26, Ethyl 5-(2-chloro-3-(trifluoromethyl)benzoyl)-1-phenyl-4,5,6,7-tetrahydro-1H-imidazo[4,5-c]pyridine-4-carboxylate]"
,38,79.8,2070,34.7,"CCOC(=O)C1c2ncn(-c3cnccn3)c2CCN1C(=O)c1cccc(Cl)c1Cl (stereo not shown) [Example 29, Ethyl 5-[(2,3-dichlorophenyl)carbonyl]-1-pyrazin-2-yl-4,5,6,7-tetrahydro-1H-imidazo[4,5-c]pyridine-4-carboxylate]"
,316,156,107,50.8,"CN(C)CC1c2ncn(-c3ccccn3)c2CCN1C(=O)c1cccc(C(F)(F)F)c1Cl (stereo not shown) [Example 31, 1-(5-{[2-Chloro-3-(trifluoromethyl)phenyl]carbonyl}-1-pyridin-2-yl-4,5,6,7-tetrahydro-1H-imidazo[4,5-c]pyridin-4-yl)-N,N-dimethylmethanamine]"
,631,158,158,29.8,"CN(C)C(=O)C1c2ncn(-c3ccccn3)c2CCN1C(=O)c1cccc(C(F)(F)F)c1Cl (stereo not shown) [Example 34, 5-{[2-Chloro-3-(trifluoromethyl)phenyl]carbonyl}-N,N-dimethyl-1-pyridin-2-yl-4,5,6,7-tetrahydro-1H-imidazo[4,5-c]pyridine-4-carboxamide]"
,316,316,316,31.6,"O=C(C1c2ncn(-c3ccccn3)c2CCN1C(=O)c1cccc(C(F)(F)F)c1Cl)N1CCC1 (stereo not shown) [Example 35, 4-(Azetidin-1-ylcarbonyl)-5-{[2-chloro-3-(trifluoromethyl)phenyl]carbonyl}-1-pyridin-2-yl-4,5,6,7-tetrahydro-1H-imidazo[4,5-c]pyridine]"
,43.7,198,4110,8.6,"O=C(c1cccc(C(F)(F)F)c1Cl)N1C=Cc2c(ncn2-c2cnccn2)C1 [Example 54, 5-{[2-Chloro-3-(trifluoromethyl)phenyl]carbonyl}-1-pyrazin-2-yl-4,5-dihydro-1H-imidazo[4,5-c]pyridine]"
,126,16.7,259,11.3,"CCC1c2ncn(-c3cnccn3)c2C=CN1C(=O)c1cccc(C(F)(F)F)c1Cl (stereo not shown) [Example 55, 5-{[2-Chloro-3-(trifluoromethyl)phenyl]carbonyl}-4-ethyl-1-pyrazin-2-yl-4,5-dihydro-1H-imidazo[4,5-c]pyridine]"
−2.0,126,10.7,766,,"O=C(c1cccc(Cl)c1Cl)N1CCc2c(nc(C(F)(F)F)n2-c2ccccc2)C1 [Example 58, 5-[(2,3-Dichlorophenyl)carbonyl]-1-phenyl-2-(trifluoromethyl)-4,5,6,7-tetrahydro-1H-imidazo[4,5-c]pyridine]"
10.2,501,378,527,,"O=C(c1cccc(C(F)(F)F)c1F)N1CCc2c(ncn2-c2ccn[nH]2)C1 [Example 59, 5-{[2-Fluoro-3-(trifluoromethyl)phenyl]carbonyl}-1-(1H-pyrazol-5-yl)-4,5,6,7-tetrahydro-1H-imidazo[4,5-c]pyridine]"
,38.9,4.7,1400,−0.1,"O=C(c1cccc(C(F)(F)F)c1Cl)N1CCc2c(nnn2-c2ccccc2)C1 [Example 61, 5-{[2-Chloro-3-(trifluoromethyl)phenyl]carbonyl}-1-phenyl-4,5,6,7-tetrahydro-1H-[1,2,3]triazolo[4,5-c]pyridine]"
,43.7,76.2,4280,5.2,"O=C(c1cccc(Cl)c1Cl)N1CCc2c(nnn2-c2ccccc2)C1 [Example 62, 5-[(2,3-Dichlorophenyl)carbonyl]-1-phenyl-4,5,6,7-tetrahydro-1H-[1,2,3]triazolo[4,5-c]pyridine]"
12.9,18.2,16.9,184,,"O=C(c1cccc(C(F)(F)F)c1Cl)N1CCc2c(nnn2-c2ccn[nH]2)C1 [Example 68, 5-{[2-Chloro-3-(trifluoromethyl)phenyl]carbonyl}-1-(1H-pyrazol-5-yl)-4,5,6,7-tetrahydro-1H-[1,2,3]triazolo[4,5-c]pyridine]"
6.8,14.1,106,1460,,"O=C(c1cccc(C(F)(F)F)c1F)N1CCc2c(nnn2-c2cnccn2)C1 [Example 69, 5-{[2-Fluoro-3-(trifluoromethyl)phenyl]carbonyl}-1-pyrazin-2-yl-4,5,6,7-tetrahydro-1H-[1,2,3]triazolo[4,5-c]pyridine]"
,29.5,4.2,169,−5.7,"CC1c2nnn(-c3cnccn3)c2C=CN1C(=O)c1cccc(C(F)(F)F)c1Cl (stereo not shown) [Example 72, 5-{[2-Chloro-3-(trifluoromethyl)phenyl]carbonyl}-4-methyl-1-pyrazin-2-yl-4,5-dihydro-1H-[1,2,3]triazolo[4,5-c]pyridine]"
,100,63.1,501,57.7,"O=C(c1cccc(C(F)(F)F)c1Cl)N1CCc2[nH]nnc2C1c1ccccc1 (stereo not shown) [Example 78, 5-{[2-Chloro-3-(trifluoromethyl)phenyl]carbonyl}-4-phenyl-4,5,6,7-tetrahydro-1H-[1,2,3]triazolo[4,5-c]pyridine]"
,31.6,6.2,86.5,23.2,"CC1c2nnn(-c3ncccn3)c2C=CN1C(=O)c1cccc(C(F)(F)F)c1Cl (stereo not shown) [Example 79, 5-{[2-Chloro-3-(trifluoromethyl)phenyl]carbonyl}-4-methyl-1-pyrimidin-2-yl-4,5-dihydro-1H-[1,2,3]triazolo[4,5-c]pyridine]"
5.9,63.1,73.5,108,,"CC1c2nnn(-c3ccc(F)cc3)c2C=CN1C(=O)c1cccc(C(F)(F)F)c1Cl (stereo not shown) [Example 81, 5-{[2-Chloro-3-(trifluoromethyl)phenyl]carbonyl}-1-(4-fluorophenyl)-4-methyl-4,5-dihydro-1H-[1,2,3]triazolo[4,5-c]pyridine]"
7.9,57.5,17.3,154,,"CC1c2nnn(-c3ncccc3F)c2C=CN1C(=O)c1cccc(C(F)(F)F)c1Cl (stereo not shown) [Example 82, 5-{[2-Chloro-3-(trifluoromethyl)phenyl]carbonyl}-1-(3-fluoropyridin-2-yl)-4-methyl-4,5-dihydro-1H-[1,2,3]triazolo[4,5-c]pyridine]"
4.5,158,16.9,397,,"CC1c2nnn(-c3ccc(F)cc3)c2CCN1C(=O)c1cccc(C(F)(F)F)c1Cl (stereo not shown) [Example 83, 5-{[2-Chloro-3-(trifluoromethyl)phenyl]carbonyl}-1-(4-fluorophenyl)-4-methyl-4,5,6,7-tetrahydro-1H-[1,2,3]triazolo[4,5-c]pyridine]"
13.0,39.8,12.9,136,,"CC1c2nnn(-c3cc[nH]n3)c2C=CN1C(=O)c1cccc(C(F)(F)F)c1Cl (stereo not shown) [Example 86, 5-{[2-Chloro-3-(trifluoromethyl)phenyl]carbonyl}-4-methyl-1-(1H-pyrazol-3-yl)-4,5-dihydro-1H-[1,2,3]triazolo[4,5-c]pyridine]"
,15.8,5.5,908,−1.5,"O=C(c1cccc(C(F)(F)F)c1Cl)N1C=Cc2c(nnn2-c2cnccn2)C1 [Example 89, 5-{[2-Chloro-3-(trifluoromethyl)phenyl]carbonyl}-1-pyrazin-2-yl-4,5-dihydro-1H-[1,2,3]triazolo[4,5-c]pyridine]"
,29.5,10.3,973,13.3,"O=C(c1cccc(C(F)(F)F)c1Cl)N1C=Cc2c(nnn2-c2ccccn2)C1 [Example 90, 5-{[2-Chloro-3-(trifluoromethyl)phenyl]carbonyl}-1-pyridin-2-yl-4,5-dihydro-1H-[1,2,3]triazolo[4,5-c]pyridine]"
